Patent publication US6348570B1, “Chromophore containing compounds and their use in determining interleukin-1β convertase activity” (Merck & Co., Inc., priority 1991, dated 2002)
Starred links: 1 amine or outer side, 2 acyl side, 3 side chain; linkers in the order of their positions; H or OH if unused. Non-standard residues stand in square brackets, D forms with d. Residues, ends and D or L forms follow the SMILES beside them. No end group written: not given here. *: point of attachment. 3‑amino‑4‑oxobutanoic acid = aspartic acid with its alpha-carboxyl as an aldehyde, O=C[C@H](CC(=O)[*:3])N[*:1]; AMC = Cc1cc(=O)oc2cc(N*)ccc12

Experiments:
[1] = molecular target: T1, Interleukin-1β convertase (ICE), DEAE-purified THP-1 cell lysate (Homo sapiens, UniProt P29466); test: Coupled fluorometric ICE assay with leucine aminopeptidase (LAPM); assay type: biochemical; parameters: Activity of DEAE-purified THP-1 cell lysate; endogenous in cells; host or cells: THP-1 cells; cytosolic extract fractionated on a DEAE-5PW HPLC column; conditions: 25° C.
T1 sequence (P29466 120-297 limits assumed): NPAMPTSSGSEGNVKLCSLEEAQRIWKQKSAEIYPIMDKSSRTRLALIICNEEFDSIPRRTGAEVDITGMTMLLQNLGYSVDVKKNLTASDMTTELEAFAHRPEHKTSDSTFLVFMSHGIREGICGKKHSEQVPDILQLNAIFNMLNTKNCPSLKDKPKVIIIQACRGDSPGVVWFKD
T1 sequence (P29466 317-404 limits assumed): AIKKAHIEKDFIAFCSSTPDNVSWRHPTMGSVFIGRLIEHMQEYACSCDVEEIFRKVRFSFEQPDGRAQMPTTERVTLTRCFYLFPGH
Description: Coupled Assay: Interleukin 1β activity of Activity of DEAE-purified THP-1 cell lysate.
At 25° C., 5 μl of substrate 5 μl of LAPM, 5 μl of ICE were added to […] of buffer.
Reaction is monitored continuously in a Gilford Fluoro-IV Spectrofluorometer. excitation wavelength=380 nm emission wavelength=460 nm 1 uM AMC=100% relative fluoroescence

[2] = molecular target: T1, Interleukin-1β convertase (ICE), DEAE-purified THP-1 cell lysate; assay type: biochemical; parameters: Activity of DEAE-purified THP-1 cell lysate; endogenous in cells; host or cells: THP-1 cells; cytosolic extract fractionated on a DEAE-5PW HPLC column; conditions: pH 7.5
Description: [table] At 25° C., 5 μl of substrate 5 μl of enzyme and 5 μl of sample were added to 485 μl of Buffer as defined above. Liberation of AMC was monitored using a Gilford Fluoro IV Spectrofluorometer using an excitation wavelength of 380 nm and an emmission wavelength of 460 nm. 1 μM AMC=100% relative fluorescence.

[3] = molecular target: T2, Interleukin-1β convertase (ICE) (UniProt P29466 120-297; P29466 317-404, limits assumed); test: cell-based or functional assay
T2 sequence (looked up) 1: T1 sequence (P29466 120-297 limits assumed)
T2 sequence (looked up) 2: T1 sequence (P29466 317-404 limits assumed)

CC(=O)N[C@@H](Cc1ccc(O)cc1)C(=O)N[C@H](C(=O)N[C@@H](C)C(=O)N[C@@H](CC(=O)O)C(=O)NCC(=O)Nc1ccc2c(C)cc(=O)oc2c1)C(C)C [Ac-Tyr-Val-Ala-Asp-Gly-AMC, N-(N-Acetyl-tyrosinyl-valinyl-alaninyl-aspartyl-glycinyl)-7-amino-4-methylcoumarin] (Ac-YVADG-{AMC})
velocity of the steady state reaction ([1]; 5 μl substrate, 5 μl LAPM, 5 μl ICE, pH 7.5): 0.05 uM AMC/min
rate constant that describes the approach to steady state (lag phase) ([1]; determined by amount of coupling enzyme LAPM (5 μl of 12.5 units/ml)): 0.44 ± 0.01 min⁻¹

CC(=O)N[C@@H](Cc1ccc(O)cc1)C(=O)N[C@H](C(=O)N[C@@H](C)C(=O)NC(C=O)CC(=O)O)C(C)C (stereo partly drawn) [Compound Z, N-(N-acetyl-tyrosinyl-valinyl-alaninyl)-3-amino-4-oxo butanoic acid]
rate constant for inhibition ([2]; 5 μl of 2 μM sample in 500 μl, 25° C.): 0.25 min⁻¹
half-life for the slow onset of inhibition [2]: 2.7 min
type of inhibition ([2]; substrate Ac-Tyr-Val-Ala-Asp-AMC, 25° C.): slow, tight-binding inhibitor

Ac-YVA[3‑amino‑4‑oxobutanoic acid] [compound Z (i.e. N-(N-acetyl-tyrosinyl-valinyl-alaninyl)-3-amino-4-oxo butanoic acid)]
half-life for the slow onset of inhibition [3]: 2.7 min
